From ChEMBL document CHEMBL1133627, “4-Anilino-6,7-dialkoxyquinoline-3-carbonitrile inhibitors of epidermal growth factor receptor kinase and their bioisosteric relationship to the 4-anilino-6,7-dialkoxyquinazoline inhibitors” (J Med Chem, 2000) come the findings set out here.

In test [1] the test system is SW-620. The test can be described thus: Concentration needed to inhibit 50% growth of human SW620 (colon carcinoma) cell lines. In kind it is functional, cell-based.
For test [2], the system named is SK-BR-3. Nature of the test: Concentration needed to inhibit 50% growth of human SKBr3 (breast carcinoma) cell lines. In kind it is functional, cell-based.
In test [3] the target is Epidermal growth factor receptor and ErbB2 (HER1 and HER2) (Homo sapiens, UniProt P04626+P00533). The test can be described thus: Concentration needed to inhibit the autophosphorylation of the cytoplasmic domain of Epidermal growth factor receptor using DELFIA/time-resolved fluorimetry. It is filed as protein assay.
Test [4] concerns A-431. The test can be described thus: Concentration needed to inhibit 50% growth of the human A431 (epidermoid carcinoma) cell lines. In kind it is functional, cell-based.

Structures are written as SMILES. Bounds are passed on as bounds.

As to `CCOc1cc2ncc(C#N)c(Nc3cccc(Br)c3)c2cc1OCC`, the IC50 in test [1] is 0.16 µM; in test [2], 0.09 µM; in test [3], 0.42 µM; in test [4], 0.11 µM.

For `COc1cc2c(C#N)cnc(Nc3cccc(Cl)c3)c2cc1OC`, the IC50 in test [1] was 64.5 µM; in test [2], 27.7 µM; in test [3], 88.29 µM; in test [4], 26.1 µM.

Turning to `COc1cc2ncc(C=O)c(Nc3cccc(Br)c3)c2cc1OC`, the concentration for half-maximal inhibition (IC50) in test [1] was 5.24 µM; in test [2] it was 2.97 µM; in test [3], 3.37 µM; in test [4] it was 1.95 µM.

`COc1cc2ncc(C#N)c(Nc3ccc(C)c(Cl)c3)c2cc1OC`: the IC50 is 25 µM in test [1], 0.94 µM in test [2], 1.48 µM in test [3] and 0.93 µM in test [4].

For `COc1cc2ncc(C#N)c(Nc3cccc(Cl)c3)c2cc1OC`, the IC50 was determined as 7.06 µM in test [1], 1.76 µM in test [2], 0.18 µM in test [3] and 0.59 µM in test [4].

Consider `COc1cc2ncc(C#N)c(Nc3ccccc3Br)c2cc1OC`, for which the IC50 in test [1] was 17 µM; in test [2], 0.8 µM; in test [3], 4.18 µM; in test [4], 21 µM.

As for `COc1cc2ncc(C#N)c(Nc3cccc(C(C)C)c3)c2cc1OC`, the 50% inhibitory concentration (IC50) in test [1] was determined as 3.8 µM; in test [2] it was 6.74 µM; in test [3] it was 62.32 µM; in test [4], 4.35 µM.

With `COc1cc2ncc(C#N)c(Nc3cccc(N)c3)c2cc1OC`, the IC50 was found to be 14.3 µM in test [1], 2.45 µM in test [2], 0.82 µM in test [3] and 6.62 µM in test [4].

Take `COc1cc2ncc(C#N)c(Nc3ccc(Br)c(C)c3)c2cc1OC`: the IC50 in test [1] is 3.09 µM; in test [2] it was 1.38 µM; in test [3] it was 0.62 µM; in test [4] it was 0.73 µM.

With `CCOc1cc2c(Nc3cccc(Br)c3)c(C#N)cnc2cc1OC`, the half-inhibitory concentration (IC50) was found to be 4.24 µM in test [1], 0.64 µM in test [2], 21.19 µM in test [3] and 0.57 µM in test [4].

Regarding `COc1cc2ncc(C#N)c(Nc3cccc(O)c3)c2cc1OC`, the 50% inhibitory concentration (IC50) in test [1] was 7.8 µM; in test [2], 0.95 µM; in test [3], 6.36 µM; in test [4], 1.52 µM.

For `COc1cc2ncc(C#N)c(Nc3ccc(O)c(Cl)c3)c2cc1OC`, the concentration for half-maximal inhibition (IC50) in test [1] was 2.75 µM; in test [2], 1.29 µM; in test [3], 9.04 µM; in test [4], 3.01 µM.

As to `COc1cc2ncc(C#N)c(Nc3cccc(C#N)c3)c2cc1OC`, the IC50 is 43.3 µM in test [1], 26 µM in test [2], 14.18 µM in test [3] and 3.51 µM in test [4].

As for `COc1cc2ncc(C#N)c(Nc3cccc(Br)c3)c2cc1OC`, the IC50 in test [1] came out at 3.72 µM; in test [2], 0.48 µM; in test [4], 0.78 µM.

On to `COCOc1cc2ncc(C#N)c(Nc3cccc(Br)c3)c2cc1OCOC`, for which the IC50 in test [1] was determined as 9.79 µM; in test [2], 14.2 µM; in test [3], 6.75 µM; in test [4], 14.5 µM.

`COc1cc2ncc(C#N)c(Nc3ccc(C)c(Br)c3)c2cc1OC`: the IC50 in test [1] came out at 2.89 µM; in test [2], 0.55 µM; in test [3], 1.79 µM; in test [4] it was 0.75 µM.

For `N#Cc1cnc2cc3c(cc2c1Nc1cccc(Br)c1)OCCO3`, the IC50 is 0.43 µM in test [1], 0.27 µM in test [2], > 104.7 µM in test [3] and 0.42 µM in test [4].

For the compound `CCOc1cc2ncc(C#N)c(Nc3cccc(Br)c3)c2cc1OC`, the IC50 was found to be 0.06 µM in test [1], 0.06 µM in test [2], 33.02 µM in test [3] and 0.14 µM in test [4].

As to `COc1cc2ncc(C#N)c(Nc3ccc(Cl)cc3F)c2cc1OC`, the IC50 in test [1] came out at 5.34 µM; in test [2], 0.54 µM; in test [3], 13.85 µM; in test [4], 0.818 µM.

As to `COc1cc2ncc(C#N)c(Nc3cccc(Br)c3C)c2cc1OC`, the 50% inhibitory concentration (IC50) in test [1] was determined as 11.8 µM; in test [2] it was 0.39 µM; in test [3], 0.84 µM; in test [4], 3.64 µM.

Regarding `COc1cc2ncc(C#N)c(Nc3cccc(SC)c3)c2cc1OC.Cl`, the half-inhibitory concentration (IC50) in test [1] was 4.98 µM; in test [2], 1.54 µM; in test [3], 0.76 µM; in test [4], 1.45 µM.

Turning to `COc1cc2ncc(C#N)c(Nc3ccc(Br)cc3F)c2cc1OC.Cl`, the IC50 is 19.2 µM in test [1], 1.69 µM in test [2], > 91.2 µM in test [3] and 0.89 µM in test [4].

Consider `COc1cc2ncc(C#N)c(Nc3cccc(C(N)=O)c3)c2cc1OC`, for which the IC50 in test [1] came to 6.29 µM; in test [2] it was 8.44 µM; in test [3] it was 7.69 µM; in test [4] it was 5.91 µM.

In the case of `CCOc1cc2ncc(C#N)c(Nc3ccc(F)c(Cl)c3)c2cc1OCC`, the IC50 in test [1] came to 0.49 µM; in test [2], 0.49 µM; in test [3] it was 0.98 µM; in test [4], 0.27 µM.

Turning to `COc1cc2ncc(C#N)c(Nc3cccc(NC(C)=O)c3)c2cc1OC`, the IC50 in test [1] was found to be 2.74 µM; in test [2], 1.55 µM; in test [3], 69.4 µM; in test [4] it was 2.62 µM.

Take `N#Cc1cnc2cc3c(cc2c1Nc1cccc(Br)c1)OCCCO3`: the IC50 was 2.9 µM in test [1], 5.07 µM in test [2], 5.15 µM in test [3] and 2.08 µM in test [4].

For `COc1cc2ncc(C#N)c(Nc3cc(Cl)c(O)c(Cl)c3)c2cc1OC`, the half-inhibitory concentration (IC50) is 3.43 µM in test [1], 2.02 µM in test [2], 3.15 µM in test [3] and 3.14 µM in test [4].

Take `COc1cc2ncc(C#N)c(Nc3ccc(F)cc3)c2cc1OC`: the IC50 in test [1] was determined as 2.87 µM; in test [2] it was 0.74 µM; in test [3], 47.94 µM; in test [4], 1.43 µM.

Turning to `COc1cc2ncc(CO)c(Nc3cccc(Br)c3)c2cc1OC`, the IC50 in test [1] was 23.2 µM; in test [2], 15.4 µM; in test [3] it was > 102.2 µM; in test [4] it was 7.91 µM.

On to `CCOC(=O)c1cnc2cc(OC)c(OC)cc2c1Nc1cccc(Br)c1`, for which the IC50 in test [1] was 6.93 µM; in test [2] it was 6.21 µM; in test [3], > 81.3 µM; in test [4], 3.01 µM.

On to `COc1cc2ncc(C(=O)O)c(Nc3cccc(Br)c3)c2cc1OC`, for which the IC50 in test [1] was found to be 53.8 µM; in test [2], 35.7 µM; in test [3], 34.22 µM; in test [4], 18.2 µM.
